Assay results taken from PMC9785202, “Changes in Disposition of Ezetimibe and Its Active Metabolites Induced by Impaired Hepatic Function: The Influence of Enzyme and Transporter Activities” (Pharmaceutics, 2022).
Like-named read-outs stand apart in the source and are kept apart here.

What was measured:
[1] = set-up: method as in earlier work; conditions: cited from earlier work
[2] = set-up: method as in PMID 11901097; conditions: cited from earlier work
OATP2B1 = molecular target: T1, OATP2B1 (Homo sapiens, UniProt O94956); assay: Uptake of EZE-Ph into OATP2B1-transfected HEK293 cells; assay type: in vitro ADME
T1 construct: host or cells: HEK293
T1 sequence (O94956 1-709): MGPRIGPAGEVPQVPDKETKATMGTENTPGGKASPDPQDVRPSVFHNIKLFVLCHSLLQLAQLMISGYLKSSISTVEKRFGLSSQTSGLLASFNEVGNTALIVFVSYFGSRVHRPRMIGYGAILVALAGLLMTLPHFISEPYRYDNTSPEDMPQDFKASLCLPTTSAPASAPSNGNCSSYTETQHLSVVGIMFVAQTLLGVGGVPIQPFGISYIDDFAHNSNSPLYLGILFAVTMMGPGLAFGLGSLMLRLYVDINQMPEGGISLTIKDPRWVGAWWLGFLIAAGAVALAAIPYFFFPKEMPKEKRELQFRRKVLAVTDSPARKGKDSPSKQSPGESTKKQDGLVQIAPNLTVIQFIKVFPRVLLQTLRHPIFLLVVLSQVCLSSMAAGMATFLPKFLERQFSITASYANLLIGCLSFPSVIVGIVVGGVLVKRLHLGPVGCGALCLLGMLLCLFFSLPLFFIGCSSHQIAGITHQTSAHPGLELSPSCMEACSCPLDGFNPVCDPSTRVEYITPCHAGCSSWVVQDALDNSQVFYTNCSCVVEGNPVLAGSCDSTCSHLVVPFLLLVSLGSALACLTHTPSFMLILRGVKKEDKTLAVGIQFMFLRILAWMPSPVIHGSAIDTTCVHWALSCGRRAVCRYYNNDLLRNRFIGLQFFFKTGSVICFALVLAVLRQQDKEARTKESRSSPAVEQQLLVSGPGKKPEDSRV
Procedure: (§1) The kinetic parameters and the half inhibitory concentration (IC50) were calculated using GraphPad Prism. […] The intrinsic clearance (CLint) was calculated as CLint = Vmax/Km.

OAT3 = molecular target: T2, OAT3 (Homo sapiens, UniProt Q8TCC7); assay: Uptake of EZE-Ph into OAT3-transfected HEK293 cells; assay type: in vitro ADME
T2 construct: host or cells: HEK293
T2 sequence (Q8TCC7 1-542): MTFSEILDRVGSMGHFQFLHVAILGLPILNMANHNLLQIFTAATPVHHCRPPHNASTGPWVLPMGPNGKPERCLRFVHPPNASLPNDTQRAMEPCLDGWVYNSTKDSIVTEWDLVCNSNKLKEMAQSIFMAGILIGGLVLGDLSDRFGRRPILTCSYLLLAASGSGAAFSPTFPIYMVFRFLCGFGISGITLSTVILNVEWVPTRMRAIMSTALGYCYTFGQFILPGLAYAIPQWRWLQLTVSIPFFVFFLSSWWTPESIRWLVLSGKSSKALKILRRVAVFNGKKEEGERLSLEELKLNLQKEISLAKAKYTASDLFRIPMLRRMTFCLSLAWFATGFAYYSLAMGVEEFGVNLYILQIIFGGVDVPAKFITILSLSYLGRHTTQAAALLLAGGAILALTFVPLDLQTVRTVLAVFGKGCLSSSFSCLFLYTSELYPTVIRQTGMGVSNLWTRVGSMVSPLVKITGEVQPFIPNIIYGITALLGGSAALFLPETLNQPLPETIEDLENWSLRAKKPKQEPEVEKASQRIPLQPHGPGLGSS
Procedure: as §1

OAT1 = assay: Uptake of EZE-Ph into OAT1-transfected HEK293 cells; assay type: in vitro ADME, human; conditions: 10 μM EZE-Ph
Procedure: (§2) Human OATP1B1-, OATP1B3-, OATP2B1-, OAT1-, OAT3-, or OCT2-transfected HEK293 cells and vector-transfected control cells (mock) were constructed at HD Biosciences Co., Ltd. (Shanghai, China). The functions of these transporters were evaluated using relevant positive substrates and inhibitors. Estradiol-17β-glucuronide (5 μM, OATP1B1 and OATP1B3), estrone 3-sulfate sodium salt (E3S, 5 μM, OATP2B1), para-aminohippuric acid (PAH, 20 μM, OAT1), furosemide (5 μM, OAT3), and 1-methyl-4-phenyl pyridinium (MPP^+, 5 μM, OCT2) were used as substrates for the transporters. […] The cells (50,000 per well) were cultured in Dulbecco’s modified Eagle’s medium (containing 10% fetal bovine serum, 1% GlutaMAX-I, 1% penicillin G/streptomycin, and 1% nonessential amino acids) on poly-D-lysine-coated 96-well plates at 37 °C in an atmosphere of 5% CO2.
(§3) The cells were rinsed three times with HBSS (37 °C) and then equilibrated in HBSS for 10 min. […] The protein content was measured using a BCA protein assay kit. The concentrations of EZE and EZE-Ph were determined using LC-MS/MS.
(§4) The rates of substrate uptake were normalized using the protein contents of cell lysates. The net uptake via transporters was calculated by subtracting the uptake in vector-transfected HEK293 cells (or uptake into hepatocytes at 4 °C) from that in transporter-transfected HEK293 cells (or uptake into hepatocytes at 37 °C).

OCT2 = assay: Uptake of EZE-Ph into OCT2-transfected HEK293 cells; assay type: in vitro ADME, human; conditions: 10 μM EZE-Ph
Procedure: as §2, §3, §4

[3] = set-up: method as in PMID 10780982; conditions: intraduodenal administration of EZE; cited from earlier work
OATP1B3 = molecular target: T3, OATP1B3 (Homo sapiens, UniProt Q9NPD5); assay: Uptake of EZE-Ph into OATP1B3-transfected HEK293 cells; assay type: in vitro ADME; set-up: host or cells: HEK293
T3 sequence (Q9NPD5 1-702): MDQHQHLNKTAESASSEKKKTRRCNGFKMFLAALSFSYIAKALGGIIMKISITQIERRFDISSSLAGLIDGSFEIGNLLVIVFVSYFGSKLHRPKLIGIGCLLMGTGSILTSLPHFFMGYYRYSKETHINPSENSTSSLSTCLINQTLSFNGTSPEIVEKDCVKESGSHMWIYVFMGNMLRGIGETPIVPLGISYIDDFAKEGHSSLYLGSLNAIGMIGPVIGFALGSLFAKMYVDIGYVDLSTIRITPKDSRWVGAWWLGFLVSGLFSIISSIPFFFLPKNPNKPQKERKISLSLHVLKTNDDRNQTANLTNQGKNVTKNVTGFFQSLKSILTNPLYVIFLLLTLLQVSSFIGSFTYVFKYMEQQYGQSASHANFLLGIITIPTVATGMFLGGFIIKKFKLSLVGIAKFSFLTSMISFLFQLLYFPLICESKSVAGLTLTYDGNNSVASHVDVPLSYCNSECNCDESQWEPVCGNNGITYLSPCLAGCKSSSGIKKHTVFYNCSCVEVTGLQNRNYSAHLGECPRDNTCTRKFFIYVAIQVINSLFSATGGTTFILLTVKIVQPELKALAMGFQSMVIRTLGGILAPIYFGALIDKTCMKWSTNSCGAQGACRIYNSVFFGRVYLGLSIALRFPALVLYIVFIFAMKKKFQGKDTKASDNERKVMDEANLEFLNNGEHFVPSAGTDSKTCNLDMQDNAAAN
Procedure: as §1

[4] = OATP1B3 HEK293, uptake time 5 min

uptake in transporter-transfected cells relative to mock-transfected cells (OATP2B1; 10 μM EZE-Ph, OATP2B1 HEK293) [times]	CLint (OATP2B1; OATP2B1 HEK293, CLint = Vmax/Km) [μL/min/mg Protein]	Kinetic Model (OATP2B1; OATP2B1 HEK293, uptake time 5 min)	uptake in transporter-transfected cells relative to mock-transfected cells (OAT3; 10 μM EZE-Ph, OAT3 HEK293) [times]	CLint (OAT3; OAT3 HEK293, CLint = Vmax/Km) [μL/min/mg Protein]	h (Hill slope) (OAT3; OAT3 HEK293, allosteric sigmoidal model)	Kinetic Model (OAT3; OAT3 HEK293, uptake time 5 min)	uptake in transporter-transfected cells relative to mock-transfected cells (OAT1)	uptake in transporter-transfected cells relative to mock-transfected cells (OCT2)	uptake in transporter-transfected cells relative to mock-transfected cells (OATP1B3; 10 μM EZE-Ph, OATP1B3 HEK293) [times]	CLint (OATP1B3; OATP1B3 HEK293, CLint = Vmax/Km) [μL/min/mg Protein]	Kinetic Model (OATP1B3; [4])	Vmax (OATP1B3; [4]) [pmol/min/mg Protein]	Km at 5 min (OATP1B3; human, OATP1B3-transfected HEK293 cells, OATP1B3 HEK293, uptake time 5 min) [µM]	Structure (SMILES)	plasma exposure, fold higher than in healthy subjects ([1]; mild CLD patients) [fold]	plasma exposure, fold higher than in healthy subjects ([1]; moderate CLD patients) [fold]	plasma exposure, fold higher than in healthy subjects ([1]; severe CLD patients) [fold]	share of the EZE-related material in human plasma [2]	EZE-Ph generated in the intestine [3] [%]
–	–	–	–	–	–	–	–	–	–	–	–	–	–	O=C1[C@H](CC[C@H](O)c2ccc(F)cc2)[C@@H](c2ccc(O)cc2)N1c1ccc(F)cc1 [EZE, 1-(4-fluorophenyl)-3(R)-[3-(4-fluorophenyl)-3(S)-hydroxypropyl]-4(S)-(4-hydroxyphenyl)-2-azetidinone, reference compound]	1.4	5.8	4.8	10–20%	–
3.7	0.56	Michaelis–Menten	8.9	1.84	1.19	Allosteric sigmoidal	less than twice	less than twice	56	6.73	Substrate inhibition	134	19.9	O=C(O)[C@H]1O[C@@H](Oc2ccc([C@@H]3[C@@H](CC[C@H](O)c4ccc(F)cc4)C(=O)N3c3ccc(F)cc3)cc2)[C@H](O)[C@@H](O)[C@@H]1O [EZE-Ph, ezetimibe phenoxy β-D-glucuronide]	–	–	–	–	> 95
